Assay results published in patent US4482568A, “Inhibition of alcohol metabolism by tetramethylene sulfoxides” (University of Iowa Research Foundation, priority 1983, dated 1984).
Read-outs that look alike come from different tables or passages of the source.

Tests used:
[1] = tested on: ethanol induced loss of righting reflex; details: mice; Sharkawi 1979; cited from earlier work
[2] = tested on: alcohol dehydrogenases in the liver; details: background, cited from earlier work
[3] = target: T1, horse liver alcohol dehydrogenase (Equus caballus, UniProt P00327); experiment: Inhibition of horse liver alcohol dehydrogenase in vitro (Kii against varied ethanol); assay type: biochemical
T1 construct: Crystallized horse liver alcohol dehydrogenase; from tissue; host or cells: horse liver
Procedure: (§1) ^a The Kii values (intercept) inhibition constants in micromolar
(§2) units as determined against varied concentrations of ethanol as substrate
(§3) Purified or partially purified enzyme was tested under approximately
(§4) physiological conditions, pH 7.3 and 37° C., except that the
(§5) crystallized horse enzyme was tested at pH 7 and 25° C.
(§6) Crystallized horse liver alcohol dehydrogenase was freed from endogenous ethanol by filtration though a column of Sephadex G-50. Inhibition studies were carried out with varied concentrations of ethanol (0.4-2 mM) at 1 mM NAD+ in 46 mM sodium phosphate buffer, pH 7, at 25° C. In each experiment, at least three different concentrations of inhibitor were tested and 32 initial velocities were determined (as in FIGS. 2A and 3A of the Journal article). Data for noncompetitive inhibition were fitted to the equation v=VS/[Km (1+[…])+S(1+I/Kii)], whereas the equation for uncompetitive inhibition has no Kis term, and competitive inhibition has no Kii term. The equation giving the lowest standard errors and residual variance was concluded to give the best fit. Rat liver alcohol dehydrogenase was partially purified, and inhibition studies were performed as with the horse liver enzyme, except that the buffer was 83 mM potassium phosphate, pH 7.3, and 40 mM KCl, total ionic strength=0.25, and the temperature was 37.8° C. The concentration of NAD was 0.5 mM. These conditions are thought to resemble those found in vivo. The concentrations of ethanol were 0.4, 0.6, 1, and 2 mM, and the inhibitors were varied between 0 and 0.6 mM.

ethanol metabolism [4] = experiment: Blood alcohol concentration in rats after ethanol and inhibitor (FIG. 1); assay type: in vivo; details: 19.6 mmol/kg ethanol, 1 mmol/kg inhibitor
Procedure: In order to compare dimethyl sulfoxide and its potential as an inhibitor with the compounds of this invention, rats were given dosages of 19.6 millimoles per kilogram of body weight of alcohol and/or injections of one millimole per kilogram of body weight of the inhibitors, either dimethyl sulfoxide, tetramethylene sulfoxide, 3-methyltetramethylene sulfoxide, or 3-butyltetramethylene sulfoxide. After injection, the alcohol concentration in the blood was measured. The drawing reports the alcohol concentration. The line designated by the numeral 12 represents ethanol without any inhibitor. The line designated by 11 represents ethanol with dimethyl sulfoxide. The line represented by the numeral 13 represents ethanol with tetramethylene sulfoxide.

[5] = target: Liver Alcohol Dehydrogenase (Monkey); experiment: Inhibition of monkey liver alcohol dehydrogenase in vitro (Kii against varied ethanol); assay type: biochemical; details: purified or partially purified enzyme, pH 7.3, 37° C., ethanol varied as substrate
Procedure: as §1, §2, §3, §4, §5

ethanol metabolism [6] = experiment: Ethanol (elimination rate) metabolism in rats; assay type: in vivo, male Sprague-Dawley rats; details: for Ethanol (Elimination Rate) Metabolism In Rats, % Inhibition: 19.6 mmoles of ethanol/kg i.p. and 1 mmole/kg inhibitor, maximum obtainable about 85%
Procedure: ^b The Kii (intercept inhibition constant, micromoles/kg) was
determined with varied concentrations of inhibitor and ethanol by
determination of blood alohol concentrations. For a survey of inhibitory
potency, rats were given 19.6 mmoles of ethanol/kg body wt., i.p., and 1.
mmole of the inhibitor, and the percentage inhibition of ethanol
elimination was calculated with reference to an animal given no inhibitor
The maximum "inhibition" that can be obtained is about 85%, since some
ethanol is eliminated by excretion, rather than by oxidation by alcohol
^c The value was estimated from results from rats given 19.6 mmoles o
ethanol/kg and 0.1, 0.4, and 1.0 mmoles/kg of the inhibitor.
The precise experimental details for assembling the data shown in the above table are reported in our Journal of Medicinal Chemistry article, 1983, Vol. 26, No. 6, at page 921. The entire article is incorporated herein by reference. In particular, for the rat studies, inhibition of ethanol metabolism by the active compounds of this invention were studied in vitro in liver alcohol dehydrogenase from horses, monkeys and rats. The in vivo study of ethanol metabolism in rats, and in particular its inhibition was studied with male Sprague-Dawley rats, which were given intraperitoneal injections of active compounds (0.1 molar) in saline at doses of 0.0, 0.25 and 0.5 or 1.0 mmole/kg of body weight. Ten minutes later, ethanol was injected intraperitoneally at a dose of 19.6 mmoles/kg of body weight. Blood samples were taken at intervals, timed from the ethanol injection, and analyzed by gas chromatography.

[7] = target: T2, Rat liver alcohol dehydrogenase (Rattus norvegicus, UniProt P06757); experiment: Inhibition of rat liver alcohol dehydrogenase in vitro (Kii against varied ethanol); assay type: biochemical
T2 construct: Rat liver alcohol dehydrogenase was partially purified; from tissue; host or cells: rat liver
Procedure: as §1, §2, §3, §4, §5, §6

[8] = tested on: isolated liver alcohol dehydrogenases; experiment: Inhibition of ethanol oxidation by isolated liver alcohol dehydrogenases (general statements); assay type: biochemical
Procedure: as §6

[9] = crystallized horse enzyme, pH 7, 25° C., ethanol varied as substrate, read-out: Liver Alcohol Dehydrogenase, In Vitro, Kii, Horse
[10] = partially purified enzyme, pH 7.3, 37° C., ethanol varied as substrate, read-out: Liver Alcohol Dehydrogenase, In Vitro, Kii, Rat

T2 sequence (P06757 2-376 limits assumed): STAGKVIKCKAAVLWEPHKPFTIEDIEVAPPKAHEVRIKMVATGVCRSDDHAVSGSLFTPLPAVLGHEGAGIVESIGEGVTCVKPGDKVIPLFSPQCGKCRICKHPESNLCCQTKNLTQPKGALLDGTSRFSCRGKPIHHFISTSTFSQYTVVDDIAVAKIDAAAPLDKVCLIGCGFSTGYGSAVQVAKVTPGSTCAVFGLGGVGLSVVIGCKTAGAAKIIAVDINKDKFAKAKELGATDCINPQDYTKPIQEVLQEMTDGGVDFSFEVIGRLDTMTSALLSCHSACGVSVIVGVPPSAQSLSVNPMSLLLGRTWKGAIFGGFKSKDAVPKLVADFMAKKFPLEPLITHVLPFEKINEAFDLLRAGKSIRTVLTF
T1 sequence (P00327 2-375 limits assumed): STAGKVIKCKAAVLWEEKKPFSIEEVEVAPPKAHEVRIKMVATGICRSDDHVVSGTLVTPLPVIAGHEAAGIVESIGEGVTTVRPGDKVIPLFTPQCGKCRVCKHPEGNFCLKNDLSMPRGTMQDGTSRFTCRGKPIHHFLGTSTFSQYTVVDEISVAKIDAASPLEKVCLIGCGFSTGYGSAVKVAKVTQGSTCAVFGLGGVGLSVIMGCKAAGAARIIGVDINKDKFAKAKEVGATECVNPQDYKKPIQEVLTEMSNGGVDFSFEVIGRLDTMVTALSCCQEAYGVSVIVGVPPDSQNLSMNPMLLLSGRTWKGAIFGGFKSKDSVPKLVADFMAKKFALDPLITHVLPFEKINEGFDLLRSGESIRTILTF

| SMILES | effectiveness as inhibitor of alcohol metabolism (blood alcohol concentration) (ethanol metabolism [4]) | Ki [3, 9] [µM] | Ki [5] [µM] | Ethanol (Elimination Rate) Metabolism In Rats, % Inhibition (ethanol metabolism [6]) [%] | Ki [7, 10] [µM] | other results |
| --- | --- | --- | --- | --- | --- | --- |
| C[S+](C)[O-] [dimethyl sulfoxide, reference compound] | not effective as an inhibitor |  |  |  |  | effect on ethanol induced loss of righting reflex [1]: significantly "prolong the ethanol induced loss of righting reflex in mice"; inhibitory effect on alcohol metabolism ([2]; Sharkawi, Toxicology Letters 1979): some slight inhibitory effect; inhibition constant with horse liver alcohol dehydrogenase ([3]; stated for comparison): four to five |
| CC1CC[S+]([O-])C1 (stereo not shown) [3-Methyltetramethylene sulfoxide, 3-Methylthiolane-1-oxide] | far superior to even tetramethylene sulfoxide | 7.5 | 450 | 72 | 18 | Ethanol (Elimination Rate) Metabolism In Rats, Kii (estimated) (ethanol metabolism [6]; estimated from rats given 19.6 mmoles of ethanol/kg and 0.1, 0.4, and 1.0 mmoles/kg of inhibitor): 150 µmol/kg |
| CCO [ethanol] |  |  |  |  |  | type of inhibition [2]: competitive inhibitor; effectiveness as inhibitor ([2]; ethanol as treatment for toxic alcohol ingestion): not a very effective inhibitor |
| [O-][S+]1CCCC1 [Tetramethylene Sulfoxide, tetramethylene sulfoxide] | far more effective |  | 1700 | 63 |  | Ki [3]: 19 µM; inhibition of ethanol metabolism in animals (in words) (ethanol metabolism [6]; animals/rats): effectively inhibit ethanol metabolism in animals; Ethanol (Elimination Rate) Metabolism In Rats, Kii (ethanol metabolism [6]; intercept inhibition constant, varied concentrations of inhibitor and ethanol, blood alcohol concentrations, i.p.): 340 µmol/kg; Ki [7]: 200 µM; inhibition of ethanol oxidation by isolated liver alcohol dehydrogenases (in words) [8]: exceptionally potent inhibitors |
| CCCCC1CC[S+]([O-])C1 (stereo not shown) [3-Butyltetramethylene sulfoxide, 3-butylthiolane-1-oxide] | far superior to even tetramethylene sulfoxide | 0.63 | 2.2 | 76 | 1.5 |  |
